From US8835409B2, “3-alkenyl-6-halo-4-aminopicolinates and their use as herbicides” (Dow AgroSciences, LLC., priority 2011, dated 2014)

Columns and labels:
[1] = tested on: Amaranthus retroflexus (pigweed); assay: Postemergence herbicidal activity, visual % control; type: in vivo; details: post-emergence, 336 h, post-emergent, after 14 days, 0 = no injury, 100 = complete kill, read-out: % Control AMARE; for pest or weed control at 280 g/ha: 280 g ai/ha; for pest or weed control at 140 g/ha: 140 g ai/ha
Experimental: (§1) Seeds or nutlets of the desired test plant species were planted in Sun Gro MetroMix® 306 planting mixture, which typically has a pH of 6.0 to 6.8 and an organic matter content of about 30 percent, in plastic pots with a surface area of 64 square centimeters. When required to ensure good germination and healthy plants, a fungicide treatment and/or other chemical or physical treatment was applied. The plants were grown for 7-21 days in a greenhouse with an approximate 15 hour photoperiod which was maintained at about 23-29° C. during the day and 22-28° C. during the night. Nutrients and water were added on a regular basis and supplemental lighting was provided with overhead metal halide 1000-Watt lamps as necessary. The plants were employed for testing when they reached the first or second true leaf stage.
(§2) A weighed amount, determined by the highest rate to be tested, of each test compound was placed in a 25 mL glass vial and was dissolved in 4 mL of a 97:3 v/v (volume/volume) mixture of acetone and dimethyl sulfoxide (DMSO) to obtain concentrated stock solutions. […] The concentrated stock solutions obtained were diluted with 20 mL of an aqueous mixture containing acetone, water, isopropyl alcohol, DMSO, Atplus 411F crop oil concentrate, and Triton® X-155 surfactant in a 48.5:39:10:1.5:1.0:0.02 v/v ratio to obtain spray solutions containing the highest application rates. Additional application rates were obtained by serial dilution of 12 mL of the high rate solution into a solution containing 2 mL of 97:3 (v/v) mixture of acetone and dimethyl sulfoxide (DMSO) and 10 mL of an aqueous mixture containing acetone, water, isopropyl alcohol, DMSO, Atplus 411F crop oil concentrate, and Triton X-155 surfactant in a 48.5:39:10:1.5:1.0:0.02 (v/v) ratio to obtain ½X, ¼X, ⅛X and 1/16X rates of the high rate. Compound requirements are based upon a 12 mL application volume at a rate of 187 L/ha. Formulated compounds were applied to the plant material with an overhead Mandel track sprayer equipped with a 8002E nozzles calibrated to deliver 187 L/ha over an application area of 0.503 square meters at a spray height of […] above the average plant canopy height. Control plants were sprayed in the same manner with the solvent blank.
(§3) The treated plants and control plants were placed in a greenhouse as described above and watered by sub-irrigation to prevent wash-off of the test compounds. After 14 days, the condition of the test plants as compared with that of the untreated plants was determined visually and scored on a scale of 0 to 100 percent where 0 corresponds to no injury and 100 corresponds to complete kill

[2] = tested on: Chenopodium album (lambsquarters); assay: as above; type: in vivo; details: post-emergence, 336 h, post-emergent, after 14 days, 0 = no injury, 100 = complete kill, read-out: % Control CHEAL; for pest or weed control at 280 g/ha: 280 g ai/ha; for pest or weed control at 140 g/ha: 140 g ai/ha
Experimental: as §1, §2, §3

[3] = tested on: Cirsium arvense (canada thistle); assay: as above; type: in vivo; details: post-emergence, 336 h, post-emergent, after 14 days, 0 = no injury, 100 = complete kill, read-out: % Control CIRAR; for pest or weed control at 280 g/ha: 280 g ai/ha; for pest or weed control at 140 g/ha: 140 g ai/ha
Experimental: as §1, §2, §3

[4] = tested on: Polygonum convolvulus (wild buckwheat); assay: as above; type: in vivo; details: Fallopia convolvulus, post-emergence, 336 h, post-emergent, after 14 days, 0 = no injury, 100 = complete kill, read-out: % Control POLCO; for pest or weed control at 280 g/ha: 280 g ai/ha; for pest or weed control at 140 g/ha: 140 g ai/ha
Experimental: as §1, §2, §3

[5] = tested on: Triticum aestivum (spring wheat); assay: as above; type: in vivo; details: post-emergence, 336 h, post-emergent, after 14 days, 0 = no injury, 100 = complete kill, read-out: % Control TRZAS; for plant injury at 280 g/ha: 280 g ai/ha; for plant injury at 140 g/ha: 140 g ai/ha
Experimental: as §1, §2, §3

Row | SMILES | melting point | pest or weed control at 280 g/ha [1] [%] | pest or weed control at 280 g/ha [2] [%] | pest or weed control at 280 g/ha [3] [%] | pest or weed control at 280 g/ha [4] [%] | plant injury at 280 g/ha [5] [%] | pest or weed control at 140 g/ha [1] [%] | pest or weed control at 140 g/ha [2] [%] | pest or weed control at 140 g/ha [3] [%] | plant injury at 140 g/ha [5] [%] | pest or weed control at 140 g/ha [4] [%]
1 | C=Cc1c(C(=O)OC)nc(Cl)c(Cl)c1N [Compound 1, methyl 4-amino-5,6-dichloro-3-vinylpicolinate] | 96 to 97 °C | 100 | 100 | 95 | 100 | 0 |  |  |  |  | 
2 | C=Cc1c(C(=O)OC)nc(Cl)c(F)c1N [Compound 2, methyl 4-amino-6-chloro-5-fluoro-3-vinylpyridine-2-carboxylate] | 99 to 100 °C |  |  |  |  |  | 100 | 90 | 70 | 55 | 
3 | C=Cc1c(N)cc(Cl)nc1C(=O)OC [Compound 3, methyl 4-amino-6-chloro-3-vinylpicolinate] | 53 to 54 °C | 100 | 100 | 100 | 100 | 20 |  |  |  |  | 
4 | C/C=C\c1c(C(=O)OC)nc(Cl)c(F)c1N [Compound 4, (Z)-methyl 4-amino-6-chloro-5-fluoro-3-(prop-1-en-1-yl)picolinate] |  |  |  |  |  |  | 100 | 100 | 85 | 0 | 40
5 | C/C=C/c1c(C(=O)OC)nc(Cl)c(F)c1N [Compound 5, (E)-methyl 4-amino-6-chloro-5-fluoro-3-(prop-1-en-1-yl)picolinate] | 107 to 109 °C |  |  |  |  |  | 0 | 90 | 65 | 0 | 20
6 | C=C(F)c1c(C(=O)OC)nc(Cl)c(F)c1N [Compound 6, methyl 4-amino-6-chloro-5-fluoro-3-(1-fluorovinyl)picolinate] | 98 to 100 °C |  |  |  |  |  | 20 | 90 | 75 | 0 | 90
7 | COC(=O)c1nc(Cl)c(F)c(N)c1/C=C/[Si](C)(C)C [Compound 7, (E)-methyl 4-amino-6-chloro-5-fluoro-3-(2-(trimethylsilyl)vinyl)picolinate] | 103 to 105 °C |  |  |  |  |  | 90 | 100 | 55 | 0 | 50
8 | COC(=O)c1nc(Cl)c(F)c(N)c1/C=C/Cl [Compound 8, (E)-methyl 4-amino-6-chloro-3-(2-chlorovinyl)-5-fluoropicolinate] | 128 to 130 °C |  |  |  |  |  | 90 | 90 | 70 | 0 | 60
9 | C=C(F)c1c(C(=O)O)nc(Cl)c(F)c1N [Compound 14, 4-amino-6-chloro-5-fluoro-3-(1-fluorovinyl)picolinic acid] |  |  |  |  |  |  | 50 | 90 | 100 | 0 | 90
10 | C[Si](C)(C)/C=C/c1c(C(=O)O)nc(Cl)c(F)c1N [Compound 15, (E)-4-amino-6-chloro-5-fluoro-3-(2-(trimethylsilyl)vinyl)picolinic acid] | 100 to 105 °C |  |  |  |  |  |  | 80 | 65 | 0 | 

The next lines start with results.

Row | melting point | SMILES | pest or weed control at 280 g/ha [1] [%] | pest or weed control at 280 g/ha [2] [%] | pest or weed control at 280 g/ha [3] [%] | pest or weed control at 280 g/ha [4] [%] | plant injury at 280 g/ha [5] [%] | pest or weed control at 140 g/ha [1] [%] | pest or weed control at 140 g/ha [2] [%] | pest or weed control at 140 g/ha [3] [%] | plant injury at 140 g/ha [5] [%] | pest or weed control at 140 g/ha [4] [%]
11 | 164 to 166 °C | C=Cc1c(C(=O)O)nc(Cl)c(F)c1N [Compound 9, 4-amino-6-chloro-5-fluoro-3-vinylpicolinic acid] |  |  |  |  |  | 100 | 100 | 100 | 50 | 
12 | 190 to 193 °C (dec.) | C=Cc1c(C(=O)O)nc(Cl)c(Cl)c1N [Compound 10, 4-amino-5,6-dichloro-3-vinylpicolinic acid] | 100 | 100 | 100 |  | 20 |  |  |  |  | 
13 | 146 to 148 °C | C=Cc1c(N)cc(Cl)nc1C(=O)O [Compound 11, 4-amino-6-chloro-3-vinylpicolinic acid] |  | 100 | 10 |  | 50 |  |  |  |  | 
14 | 141 to 143 °C | C/C=C\c1c(C(=O)O)nc(Cl)c(F)c1N [Compound 12, (Z)-4-amino-6-chloro-5-fluoro-3-(prop-1-en-l-yl)picolinic acid] |  |  |  |  |  | 100 | 100 | 80 | 10 | 85
15 | 153 to 155 °C | C/C=C/c1c(C(=O)O)nc(Cl)c(F)c1N [Compound 13, (E)-4-amino-6-chloro-5-fluoro-3-(prop-1-en-l-yl)picolinic acid] |  |  |  |  |  | 60 | 85 | 70 | 30 | 60
16 | 152 to 157 °C | Nc1c(F)c(Cl)nc(C(=O)O)c1/C=C/Cl [Compound 16, (E)-4-amino-6-chloro-3-(2-chlorovinyl)-5-fluoropicolinic acid] |  |  |  |  |  | 90 | 100 | 75 | 80 | 10
